{"source": "paper PMC11801715", "about": "“Activating PKC-ε induces HIV expression with improved tolerability” (PLOS Pathogens, 2025)", "key": {"[1]": {"test_system": "latent HIV in total CD4+ T cells", "experiment": "microbe, parasite or virus in culture", "format": "cell-based, HIV-1", "details": "for EC50: Human immunodeficiency virus 1, CD4+ T", "protocol": "Peripheral blood mononuclear cells and CD4^+ T cells used for evaluating PKC agonist and inhibitor molecules were isolated from leukopaks of selected participants as described previously. Isolated CD4^+ T cells (5×10^6 cells/well) were added to 24-well tissue culture plates in 2.5 mL of RPMI medium containing 100 nM each of elvitegravir and efavirenz. Cells were stimulated with DMSO (vehicle control) or the indicated concentrations of PKC agonist molecules. Cells were pretreated with PKC isoform inhibitors (Selleck Chemicals) for 1 hour before addition of PKC agonist at indicated concentrations and maintained at 37 °C, 5% CO2 for 3 days. Cell supernatants from each well were analyzed using the Cobas […] system for quantification of HIV-1 RNA using the HIV-1 test v2.0 kit (Roche Diagnostics)."}, "CD69 on CD4+ T cells": {"test_system": "CD69 on CD4+ T cells", "experiment": "CD4+ T-cell activation flow cytometry (CD69)", "format": "cell-based", "details": "Homo sapiens; CD4+ T cells from ART-suppressed people with HIV; read-out: EC50, activation of CD69 expression", "protocol": "Sixteen hours post treatment with PKC agonists, cellular activation of 100,000 CD4^+ T cells, taken from the above ex vivo HIV activation cultures, was assessed using flow cytometry. Cell surface expression of CD69 was measured on CD4^+ T cells using anti-human CD3 (UCHT1), CD4 (SK3) and CD69 (FN50) antibodies and standard flow staining methods. Stained cells were acquired on the Becton Dickinson (BD) LSR Fortessa II flow cytometer and results were analyzed using FlowJo software."}, "platelet-rich plasma": {"test_system": "platelet-rich plasma", "experiment": "Platelet aggregation assay (light transmittance aggregometry)", "format": "cell-based, human", "protocol": "Given that C-232A induced DIC in rats and monkeys, we tested whether C-232A could directly induce platelet activation and downstream aggregation. […] Adenosine diphosphate, a known platelet agonist, was used as a positive control (S7A Fig).\nAggregation of platelets was assessed using light transmittance aggregometry using standard methods.\n(A) Assay principle for platelet aggregation assay."}, "Sprague Dawley rats": {"test_system": "Sprague Dawley rats", "experiment": "In vivo rat study: tolerability, clinical pathology, histopathology", "protocol": "Wild-type male Sprague Dawley (Hsd: Sprague Dawley SD) rats (8–15 weeks old) were sourced from the Covance stock colony for conduct of in vivo studies at Covance Laboratories Inc. (Madison, Wisconsin, USA). Rats were administered a single dose of vehicle control (n = 3), or 0.1, 0.3, 1, or 3 mg/kg C-232A (n = 6), or 10 mg/kg C-233 by intravenous infusion over 30 minutes. Blood samples were collected through 24 hours postdose. Samples for PK measurement of C-232A concentration were processed to plasma and shipped to Gilead Sciences (Foster City, California, USA). Samples were analyzed at Covance Laboratories for hematology and clinical chemistry panels. At unscheduled necropsy (3 mg/kg C-232A), tissues were preserved in 10% neutral-buffered formalin, embedded in paraffin, mounted on slides, and stained with hematoxylin and eosin. Tissues were then evaluated independently (Experimental Pathology Laboratories, Inc)."}, "[2]": {"test_system": "EGR1 and CD69 mRNA in whole blood", "experiment": "EGR1 and CD69 mRNA levels in rat blood (QuantiGene)", "format": "in vivo", "protocol": "EGR1 and CD69 mRNA expression levels were measured in whole blood, processed using Affymetrix QuantiGene Sample Processing Kit (Thermo Fisher Scientific, catalog QS0111). Quantigene multiplex analysis was performed on 1:3 diluted blood using probes specific for rat EGR1 (Thermo Fisher Scientific, catalog nm_012551) and CD69 (catalog nm_134327), as per the kit’s instructions (Thermo Fisher Scientific, catalog QP-1014) and normalized to PPIB (catalog nm_022536) and β-actin (catalog nm_031144)."}, "PKC-ε": {"target": "T1, PKC-ε (Homo sapiens, UniProt Q02156)", "T1 sequence (Q02156 1-737)": "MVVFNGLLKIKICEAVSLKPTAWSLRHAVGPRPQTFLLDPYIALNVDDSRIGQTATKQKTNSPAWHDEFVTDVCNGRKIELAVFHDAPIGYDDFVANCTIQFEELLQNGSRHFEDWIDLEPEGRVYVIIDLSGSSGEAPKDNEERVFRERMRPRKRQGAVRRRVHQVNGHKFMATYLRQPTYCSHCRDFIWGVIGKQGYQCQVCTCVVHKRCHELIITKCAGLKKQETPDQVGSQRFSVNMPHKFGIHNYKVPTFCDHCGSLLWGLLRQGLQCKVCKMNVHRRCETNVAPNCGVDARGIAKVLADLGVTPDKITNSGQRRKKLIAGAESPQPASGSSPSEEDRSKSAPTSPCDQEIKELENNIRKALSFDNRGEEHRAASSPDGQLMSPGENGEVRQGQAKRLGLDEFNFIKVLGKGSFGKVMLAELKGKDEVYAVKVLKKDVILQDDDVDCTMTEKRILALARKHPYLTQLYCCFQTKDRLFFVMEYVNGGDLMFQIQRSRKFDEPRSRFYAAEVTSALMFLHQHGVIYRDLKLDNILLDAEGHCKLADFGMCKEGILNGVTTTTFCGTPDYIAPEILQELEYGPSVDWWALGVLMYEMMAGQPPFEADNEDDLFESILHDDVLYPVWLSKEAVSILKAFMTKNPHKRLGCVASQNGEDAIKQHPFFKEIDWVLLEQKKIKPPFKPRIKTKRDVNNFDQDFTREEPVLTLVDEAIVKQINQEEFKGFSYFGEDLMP", "experiment": "PKC isoform translocation in A549-tGFP cells", "format": "cell-based", "set-up": "host or cells: A549", "details": "for EC50: A549-tGFP cells, 60 minutes; for ε selectivity, PKC-ε: EC50 of PKC-ε divided by EC50 of PKC-ε", "protocol": "Using these findings we embarked on new designs for DAG-lactones with additional substituents from the ester moiety in combination with a few olefin substituents. A description of this effort is reported elsewhere.\nCellular translocation of PKC isoforms upon activation was determined in 8 A549 cell lines, each expressing a single PKC isoform fused to tGFP (PhenoVista Biosciences). Cells were plated in 384-well plates (80 μL/well) at 10^5 cells/mL in RPMI with 10% FBS and rested overnight. PKC agonist(s) were serially diluted at 1:3 steps in DMSO and added to the cells. After 60 minutes in an incubator at 37 °C, 5% CO2, cells were stained with Hoechst-33342 and fixed with 2% paraformaldehyde for 30 minutes at 4 °C. Cells were then stained with wheat germ agglutinin conjugated to AlexaFluor647 (WGA-647) for 10 minutes at 4 °C, washed to remove excess dye and imaged with Cellomics Array Scan (Thermo Fisher) at room temperature (RT). Images were analyzed using Cellomics automated image analysis algorithm. Plasma membrane translocation was quantified using the ratio between the average fluorescence in the areas at the cell edge defined by WGA-647 and the cytoplasm region."}}, "note": "Values joined by “and” are separate entries in the source; they are usually repeats but may differ in a detail not shown here. Identical values can stand only once. Like-named read-outs stand apart in the source and are kept apart here."}
{"smiles": "Cc1ccc(C#Cc2ccc(C(=O)OCC3(CO)Cc4c(-c5ccccc5)ccnc4O3)cc2)cc1", "note": "(stereo not shown) [C-233]", "values": [{"measurement": "HIV RNA Fold over DMSO Geo.mean", "setting": "[1]; 1.1 μM (Fig 10C)", "value": "9.2 fold and 9 fold"}, {"measurement": "EC50", "setting": "[1]; 72 h, read-out: HIV RNA EC50", "value": 0.296, "unit": "µM"}, {"measurement": "EC50", "setting": "CD69 on CD4+ T cells", "value": 0.099, "unit": "µM"}, {"measurement": "relative potency for platelet aggregation", "setting": "platelet-rich plasma", "value": "less potent than C-232A and prostratin"}, {"measurement": "platelet aggregation at concentrations below 10 μM", "setting": "platelet-rich plasma; 20-minute stimulation", "value": "little or no aggregation"}, {"measurement": "platelets and mean platelet volume", "setting": "Sprague Dawley rats; 10 mg/kg", "value": "without any significant depletion of platelets or increased mean platelet volume"}, {"measurement": "adverse events", "setting": "Sprague Dawley rats; 10 mg/kg, single IV infusion", "value": "no adverse events were observed"}, {"measurement": "EGR1 and CD69 mRNA induction versus C-232A (1 mg/kg)", "setting": "[2]; 10 mg/kg", "value": "higher induction of EGR1 and CD69 mRNA levels"}, {"measurement": "more potent for PKC-ε translocation compared with PKC-η and PKC-θ", "setting": "PKC-ε; A549-PKC-tGFP reporter cells", "value": "5- to 6 fold"}, {"measurement": "more potent for PKC-ε translocation than PKC-δ", "setting": "PKC-ε; A549-PKC-tGFP reporter cells", "value": "~200", "unit": "fold"}, {"measurement": "EC50", "setting": "PKC-ε", "value": 0.24, "unit": "µM"}, {"measurement": "ε selectivity, PKC-ε", "setting": "PKC-ε", "value": 1}]}
{"smiles": "Cc1ccc(C#Cc2ccc3oc(CC(C)(C)C(=O)OCC4(CO)CC(=CCC(CC(C)C)CC(C)C)C(=O)O4)cc3c2)cc1", "note": "(stereo not shown) [C-232A]", "values": [{"measurement": "EC50", "setting": "[1]; read-out: EC50, activation of HIV expression", "value": 0.5, "unit": "µM"}, {"measurement": "EC50", "setting": "CD69 on CD4+ T cells", "value": 0.057, "unit": "µM"}, {"measurement": "relative potency for platelet aggregation", "setting": "platelet-rich plasma", "value": "less potent than prostratin"}, {"measurement": "platelet aggregation", "setting": "platelet-rich plasma; dilution series, 20 minutes", "value": "stimulated platelet aggregation"}, {"measurement": "rats euthanized due to severe clinical signs", "setting": "Sprague Dawley rats; 1 mg/kg, single IV infusion", "value": "1 of the 6 and 1 of 6"}, {"measurement": "histopathology", "setting": "Sprague Dawley rats; 3 mg/kg", "value": "thrombi associated with congestion and hemorrhage in the lung and brain"}, {"measurement": "outcome (moribund condition)", "setting": "Sprague Dawley rats; 3 mg/kg, single IV infusion, n = 6", "value": "euthanized within 6 hours postdose"}, {"measurement": "tolerability", "setting": "Sprague Dawley rats; 0.1 and 0.3 mg/kg, single IV infusion, 6 rats", "value": "well tolerated"}, {"measurement": "circulating platelet counts", "setting": "Sprague Dawley rats; higher doses", "value": "< 100,000 platelets/µL"}, {"measurement": "mean platelet volume", "setting": "Sprague Dawley rats; higher doses", "value": "> 15", "unit": "fL"}, {"measurement": "EGR1 and CD69 transcription", "setting": "[2]; 0.1-3 mg/kg", "value": "dose-dependent increases in EGR1 and CD69 transcription"}, {"measurement": "EC50", "setting": "PKC-ε", "value": 0.058, "unit": "µM"}, {"measurement": "ε selectivity, PKC-ε", "setting": "PKC-ε", "value": 1}]}
